Assay results: ChEMBL document CHEMBL1201862, “PubChem BioAssay data set” (2004)
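Assay format: 96-well plates, 48-hour exposure. GI50 marks 50% less growth.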 Activity calls are given as the source filed them. Rule as the data show it: active = GI50 up to about 1.1 µM and inactive = higher.

Assays:
Assay in all cases: NCI tumour cell line growth inhibition, 48 h
LOX IMVI = test system: LOX IMVI
UACC-62 = test system: UACC-62
NCI-H522 = test system: NCI-H522
NCI-H460 = test system: NCI-H460
A549 = test system: A549
HT-29 = test system: HT-29
NCI-H23 = test system: NCI-H23
SK-MEL-5 = test system: SK-MEL-5
RXF 393 = test system: RXF 393
ACHN = test system: ACHN
SF-295 = test system: SF-295
EKVX = test system: EKVX
TK-10 = test system: TK-10
KM12 = test system: KM12
PC-3 = test system: PC-3
Hs-578T = test system: Hs-578T
SW-620 = test system: SW-620
SK-MEL-28 = test system: SK-MEL-28
786-0 = test system: 786-0
BT-549 = test system: BT-549

## COc1cc(O)cc(O)c1C(=O)CC(Cl)(Cl)Cl
LOX IMVI
  GI50: > 100 µM (inactive)
UACC-62
  GI50: > 100 µM (inactive)
NCI-H522
  GI50: > 100 µM (inactive)
NCI-H460
  GI50: > 100 µM (inactive)
A549
  GI50: > 100 µM (inactive)
HT-29
  GI50: > 100 µM (inactive)
NCI-H23
  GI50: > 100 µM (inactive)
SK-MEL-5
  GI50: > 100 µM (inactive)
RXF 393
  GI50: > 100 µM (inactive)
ACHN
  GI50: > 100 µM (inactive)
SF-295
  GI50: > 100 µM (inactive)
EKVX
  GI50: > 100 µM (inactive)
TK-10
  GI50: > 100 µM (inactive)
KM12
  GI50: > 100 µM (inactive)
PC-3
  GI50: > 100 µM (inactive)
Hs-578T
  GI50: > 100 µM (inactive)
SW-620
  GI50: > 100 µM (inactive)
SK-MEL-28
  GI50: > 100 µM (inactive)
786-0
  GI50: > 100 µM (inactive)
BT-549
  GI50: > 100 µM (inactive)

## COc1ccc(NC(=O)CC(=O)N2N=C(C)C(/N=N\c3ccc(S(=O)(=O)c4ccc(/N=N/C5C(=O)N(C(=O)CC(=O)Nc6ccc(OC)cc6)N=C5C)cc4)cc3)C2=O)cc1 (stereo not given)
LOX IMVI
  GI50: > 100 µM (inactive)
UACC-62
  GI50: > 100 µM (inactive)
NCI-H522
  GI50: > 100 µM (inactive)
NCI-H460
  GI50: > 100 µM (inactive)
A549
  GI50: > 100 µM (inactive)
HT-29
  GI50: > 100 µM (inactive)
NCI-H23
  GI50: > 100 µM (inactive)
SK-MEL-5
  GI50: 63 µM (inactive)
RXF 393
  GI50: 31.3 µM (inactive)
ACHN
  GI50: > 100 µM (inactive)
SF-295
  GI50: > 100 µM (inactive)
EKVX
  GI50: > 100 µM (inactive)
TK-10
  GI50: > 100 µM (inactive)
KM12
  GI50: > 100 µM (inactive)
PC-3
  GI50: > 100 µM (inactive)
Hs-578T
  GI50: 25 µM (inactive)
SW-620
  GI50: > 100 µM (inactive)
SK-MEL-28
  GI50: > 100 µM (inactive)
786-0
  GI50: > 100 µM (inactive)
BT-549
  GI50: > 100 µM (inactive)

## CC(c1ccccc1)N1CCN(C(C)c2ccccc2)CC1 (stereo not given)
LOX IMVI
  GI50: > 100 µM (inactive)
UACC-62
  GI50: 40.8 µM (inactive)
NCI-H522
  GI50: > 100 µM (inactive)
NCI-H460
  GI50: 65.2 µM (inactive)
A549
  GI50: > 100 µM (inactive)
HT-29
  GI50: 44.8 µM (inactive)
NCI-H23
  GI50: > 100 µM (inactive)
SK-MEL-5
  GI50: 17.1 µM (inactive)
RXF 393
  GI50: 79.6 µM (inactive)
ACHN
  GI50: > 100 µM (inactive)
SF-295
  GI50: > 100 µM (inactive)
EKVX
  GI50: > 100 µM (inactive)
TK-10
  GI50: > 100 µM (inactive)
KM12
  GI50: > 100 µM (inactive)
PC-3
  GI50: > 100 µM (inactive)
Hs-578T
  GI50: > 100 µM (inactive)
SW-620
  GI50: > 100 µM (inactive)
SK-MEL-28
  GI50: 29 µM (inactive)
786-0
  GI50: > 100 µM (inactive)
BT-549
  GI50: > 100 µM (inactive)

## COc1ccc2c(C)cc(N/N=C(\C)C=O)nc2c1
LOX IMVI
  GI50: 10.2 µM (inactive)
UACC-62
  GI50: 12.6 µM (inactive)
NCI-H522
  GI50: 12.6 µM (inactive)
NCI-H460
  GI50: 8.99 µM (inactive)
A549
  GI50: 18.5 µM (inactive)
HT-29
  GI50: 12.2 µM (inactive)
NCI-H23
  GI50: 11.8 µM (inactive)
SK-MEL-5
  GI50: 12.7 µM (inactive)
RXF 393
  GI50: 10.6 µM (inactive)
ACHN
  GI50: 15.6 µM (inactive)
SF-295
  GI50: 10 µM (inactive)
EKVX
  GI50: 16.6 µM (inactive)
TK-10
  GI50: 15.7 µM (inactive)
KM12
  GI50: 12.3 µM (inactive)
PC-3
  GI50: 9.2 µM (inactive)
Hs-578T
  GI50: 15.5 µM (inactive)
SW-620
  GI50: 7.57 µM (inactive)
SK-MEL-28
  GI50: 13.7 µM (inactive)
786-0
  GI50: 11.6 µM (inactive)
BT-549
  GI50: 15.1 µM (inactive)

## Cc1cccc(C)c1NC(=O)/C(CC(=O)CC(c1ccccc1)c1c(O)c2ccccc2oc1=O)=N/O (stereo not given)
LOX IMVI
  GI50: > 100 µM (inactive)
UACC-62
  GI50: > 100 µM (inactive)
NCI-H522
  GI50: > 100 µM (inactive)
NCI-H460
  GI50: > 100 µM (inactive)
A549
  GI50: > 100 µM (inactive)
HT-29
  GI50: > 100 µM (inactive)
NCI-H23
  GI50: > 100 µM (inactive)
SK-MEL-5
  GI50: > 100 µM (inactive)
RXF 393
  GI50: > 100 µM (inactive)
ACHN
  GI50: > 100 µM (inactive)
SF-295
  GI50: > 100 µM (inactive)
EKVX
  GI50: > 100 µM (inactive)
TK-10
  GI50: > 100 µM (inactive)
KM12
  GI50: > 100 µM (inactive)
PC-3
  GI50: > 100 µM (inactive)
Hs-578T
  GI50: > 100 µM (inactive)
SW-620
  GI50: > 100 µM (inactive)
SK-MEL-28
  GI50: > 100 µM (inactive)
786-0
  GI50: > 100 µM (inactive)
BT-549
  GI50: > 100 µM (inactive)

## O=C1Nc2ccccc2N/C1=C\C(=O)C(F)F
LOX IMVI
  GI50: > 100 µM (inactive)
UACC-62
  GI50: > 100 µM (inactive)
NCI-H522
  GI50: > 100 µM (inactive)
NCI-H460
  GI50: > 100 µM (inactive)
A549
  GI50: > 100 µM (inactive)
HT-29
  GI50: > 100 µM (inactive)
NCI-H23
  GI50: > 100 µM (inactive)
SK-MEL-5
  GI50: > 100 µM (inactive)
RXF 393
  GI50: > 100 µM (inactive)
ACHN
  GI50: > 100 µM (inactive)
SF-295
  GI50: > 100 µM (inactive)
EKVX
  GI50: 14.9 µM (inactive)
TK-10
  GI50: > 100 µM (inactive)
KM12
  GI50: > 100 µM (inactive)
PC-3
  GI50: > 100 µM (inactive)
Hs-578T
  GI50: > 100 µM (inactive)
SW-620
  GI50: > 100 µM (inactive)
SK-MEL-28
  GI50: > 100 µM (inactive)
786-0
  GI50: > 100 µM (inactive)
BT-549
  GI50: > 100 µM (inactive)

## CCOc1ccc(/N=N/C2C(=O)N(C(=O)CC(=O)Nc3ccccc3)N=C2C)cc1 (stereo not given)
LOX IMVI
  GI50: 43.3 µM (inactive)
UACC-62
  GI50: 39.5 µM (inactive)
NCI-H522
  GI50: 83.9 µM (inactive)
NCI-H460
  GI50: 34.6 µM (inactive)
A549
  GI50: 34.5 µM (inactive)
HT-29
  GI50: 33.6 µM (inactive)
NCI-H23
  GI50: 78.3 µM (inactive)
SK-MEL-5
  GI50: 42.8 µM (inactive)
RXF 393
  GI50: > 100 µM (inactive)
ACHN
  GI50: > 100 µM (inactive)
SF-295
  GI50: > 100 µM (inactive)
EKVX
  GI50: 17.4 µM (inactive)
TK-10
  GI50: > 100 µM (inactive)
KM12
  GI50: 18.6 µM (inactive)
PC-3
  GI50: > 100 µM (inactive)
Hs-578T
  GI50: 16 µM (inactive)
SW-620
  GI50: 33.4 µM (inactive)
SK-MEL-28
  GI50: 48.5 µM (inactive)
786-0
  GI50: > 100 µM (inactive)
BT-549
  GI50: 33.6 µM (inactive)

## O=C(O)C1C2C=CC(O2)C1C(=O)NCc1cccnc1 (stereo not given)
LOX IMVI
  GI50: > 100 µM (inactive)
UACC-62
  GI50: > 100 µM (inactive)
NCI-H522
  GI50: > 100 µM (inactive)
NCI-H460
  GI50: > 100 µM (inactive)
A549
  GI50: > 100 µM (inactive)
HT-29
  GI50: > 100 µM (inactive)
NCI-H23
  GI50: > 100 µM (inactive)
SK-MEL-5
  GI50: > 100 µM (inactive)
RXF 393
  GI50: > 100 µM (inactive)
ACHN
  GI50: > 100 µM (inactive)
SF-295
  GI50: > 100 µM (inactive)
EKVX
  GI50: > 100 µM (inactive)
TK-10
  GI50: > 100 µM (inactive)
KM12
  GI50: > 100 µM (inactive)
PC-3
  GI50: > 100 µM (inactive)
Hs-578T
  GI50: 51.8 µM (inactive)
SW-620
  GI50: > 100 µM (inactive)
SK-MEL-28
  GI50: > 100 µM (inactive)
786-0
  GI50: > 100 µM (inactive)
BT-549
  GI50: > 100 µM (inactive)

## COc1cc(CCN)c(OC)c(OC)c1
LOX IMVI
  GI50: > 100 µM (inactive)
UACC-62
  GI50: > 100 µM (inactive)
NCI-H522
  GI50: > 100 µM (inactive)
NCI-H460
  GI50: > 100 µM (inactive)
A549
  GI50: > 100 µM (inactive)
HT-29
  GI50: > 100 µM (inactive)
NCI-H23
  GI50: > 100 µM (inactive)
SK-MEL-5
  GI50: 23.6 µM (inactive)
RXF 393
  GI50: > 100 µM (inactive)
ACHN
  GI50: > 100 µM (inactive)
SF-295
  GI50: > 100 µM (inactive)
EKVX
  GI50: > 100 µM (inactive)
TK-10
  GI50: > 100 µM (inactive)
KM12
  GI50: > 100 µM (inactive)
PC-3
  GI50: > 100 µM (inactive)
Hs-578T
  GI50: > 100 µM (inactive)
SW-620
  GI50: 36.2 µM (inactive)
SK-MEL-28
  GI50: > 100 µM (inactive)
786-0
  GI50: > 100 µM (inactive)
BT-549
  GI50: > 100 µM (inactive)

## CCC(=C/[C@H](C)C/C=C/C(C)=C/[C@@H](C)C(=O)[C@@H](C)[C@H](O)[C@@H](C)CC)/C=C/[C@H]1CC=CC(=O)O1 [CALLYSTATIN A]
LOX IMVI
  GI50: < 0.0012 µM (active)
UACC-62
  GI50: < 0.0012 µM (active)
NCI-H522
  GI50: < 0.0012 µM (active)
NCI-H460
  GI50: < 0.0012 µM (active)
A549
  GI50: < 0.0012 µM (active)
HT-29
  GI50: < 0.0012 µM (active)
NCI-H23
  GI50: < 0.0012 µM (active)
SK-MEL-5
  GI50: < 0.0012 µM (active)
RXF 393
  GI50: < 0.0012 µM (active)
ACHN
  GI50: < 0.0012 µM (active)
SF-295
  GI50: < 0.0012 µM (active)
EKVX
  GI50: < 0.0012 µM (active)
TK-10
  GI50: < 0.0012 µM (active)
KM12
  GI50: < 0.0012 µM (active)
PC-3
  GI50: < 0.0012 µM (active)
Hs-578T
  GI50: < 0.0012 µM (active)
SW-620
  GI50: < 0.0012 µM (active)
SK-MEL-28
  GI50: < 0.0012 µM (active)
786-0
  GI50: < 0.0012 µM (active)
BT-549
  GI50: < 0.0012 µM (active)
